O=C(Nc1ccccc1)Nc1ccnc(Cl)c1
solubility (mole fraction)
Conditions | 278.15 K | 283.15 K | 288.15 K | 293.15 K | 298.15 K | 303.15 K | 308.15 K | 313.15 K | 318.15 K | 323.15 K
in acetone | 0.03 | 0.0317 | 0.0346 | 0.0384 | 0.042 | 0.0456 | 0.0488 | 0.0544 | 0.0606 | 0.0672
in ethanol | 0.0171 | 0.0193 | 0.0218 | 0.0248 | 0.0282 | 0.0325 | 0.0373 | 0.043 | 0.0495 | 0.0563
in methanol | 0.0119 | 0.0135 | 0.0155 | 0.0183 | 0.0219 | 0.0257 | 0.0305 | 0.0366 | 0.0447 | 0.0541
in n-propanol | 0.0171 | 0.0198 | 0.0221 | 0.0257 | 0.0295 | 0.034 | 0.0385 | 0.0453 | 0.0515 | 0.0582

Source: BigSolDB 2.1
